Measured values: EP0191520A1, “(1-phenylmethyl-5-hydroxy-1H-indazol-3-yl)-oxyacetic acid and salts thereof for use as a medicament, and pharmaceutical compositions containing them” (AZIENDE CHIMICHE RIUNITE ANGELINI FRANCESCO A.C.R.A.F. …, priority 1985, dated 1986)
Read-outs that look alike come from different tables or passages of the source.

Legend:
albumin of beef serum = target: T1, albumin of beef serum (Bos taurus, UniProt P02769); test: protective effect on protein denaturation from UV rays (method of Silvestrini et al.); format: biochemical; details: for inhibition at 50 µM: molar conc. .00005; for inhibition at 200 µM: molar conc. .0002
T1 construct: albumin of beef serum; from tissue; host or cells: beef serum
T1 sequence (P02769 25-607): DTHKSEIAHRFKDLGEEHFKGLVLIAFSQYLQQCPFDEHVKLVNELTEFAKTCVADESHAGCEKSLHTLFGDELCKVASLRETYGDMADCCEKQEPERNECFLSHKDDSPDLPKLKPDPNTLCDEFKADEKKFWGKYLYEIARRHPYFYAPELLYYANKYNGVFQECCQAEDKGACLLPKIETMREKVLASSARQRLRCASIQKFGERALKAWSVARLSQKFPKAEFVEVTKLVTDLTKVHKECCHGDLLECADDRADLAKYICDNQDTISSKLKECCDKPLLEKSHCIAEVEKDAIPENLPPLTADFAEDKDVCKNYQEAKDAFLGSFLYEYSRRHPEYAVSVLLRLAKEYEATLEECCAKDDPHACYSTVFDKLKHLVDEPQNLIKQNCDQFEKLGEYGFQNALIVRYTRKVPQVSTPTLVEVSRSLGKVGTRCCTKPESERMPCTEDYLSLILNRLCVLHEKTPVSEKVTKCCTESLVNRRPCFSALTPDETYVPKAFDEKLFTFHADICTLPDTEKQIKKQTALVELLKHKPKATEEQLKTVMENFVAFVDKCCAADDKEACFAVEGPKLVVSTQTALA
Protocol: The Compounds of formulas I and II were tested under experimental conditions designed to show the protective effect on protein denaturation from UV rays according to the method of Silvestrini et al. (Int. J. Tiss. Reac. 5, 217-225, 1983) which comprises the measurement of the protective action of the compound under examination on the denaturation of the albumin of beef serum submitted to UV rays for 30 minutes.

[1] = system: bilateral senile cataract; test: preliminary tests on man: cataract therapy for three months, oral or topical; format: in vivo; details: 10 patients
Protocol: Preliminary tests on man confirmed the action of Compound II in cataract therapy.
Two groups of 10 patients afflicted by bilateral senile cataract with cortical or subcapsular or cortinuclear localization, in the initial evolutive stage, without fundus alterations and with a distant visus from 5 to 9 tenths (after correction of any refraction error) were treated for three months with Compound II orally (100 mg tablet; 1 tablet, three times a day) and topically (0.1% collyrium; 1 drop in the conjunctival sac of each eye three times a day) respectively.
The effect of the treatment was evaluated by monitoring the variations in the visus, in the refraction error, and in lenticular opacity (by biomicroscopy with a slit lamp and by ophthalmoscopy).

[2] = orally, 100 mg tablet three times a day
[3] = topically, 0.1% collyrium, 1 drop in each eye three times a day
[4] = UV rays for 30 minutes, read-out: % INHIBITION MEAN
[5] = single determinations, UV rays for 30 minutes, read-out: % INHIBITION

O=C(O)COc1nn(Cc2ccccc2)c2ccccc12 [Compound I, bendazac lysinate, reference compound]
inhibition at 250 µM (albumin of beef serum; molar conc. .00025, UV rays for 30 minutes): 12%
inhibition at 500 µM (albumin of beef serum; molar conc. .0005, UV rays for 30 minutes): 21%
inhibition at 1000 µM (albumin of beef serum; molar conc. .001, UV rays for 30 minutes): 42%
inhibition at 2000 µM (albumin of beef serum; molar conc. .002, UV rays for 30 minutes): 61%

O=C(O)COc1nn(Cc2ccccc2)c2ccc(O)cc12 [Compound II, (5-hydroxy-1-benzyl)-indazolyl-3-oxyacetic acid]
opacity decreased [1, 2]: 6 eyes
opacity increased [1, 2]: 1 eye
opacity remained unchanged [1, 2]: 13 eyes
overall clinical judgement: patients improved [1, 2]: 7 patients
overall clinical judgement: remained unchanged [1, 2]: 2 patients
overall clinical judgement: worsened slightly [1, 2]: one
overall clinical judgement: patients improved greatly ([1]; orally, 100 mg tablet three times a day, part of the 7 improved): 4 patients
mean visus value increased ([1]; orally, 100 mg tablet three times a day, t = 3.58, P < 0.01): 16.79%
opacity decreased [1, 3]: 7 eyes
opacity increased [1, 3]: 2 eyes
opacity remained unchanged [1, 3]: 11 eyes
overall clinical judgement: patients improved [1, 3]: 4 patients
overall clinical judgement: remained unchanged [1, 3]: 5 patients
overall clinical judgement: worsened [1, 3]: one
mean visus value increased ([1]; topically, 0.1% collyrium, 1 drop in each eye three times a day, t = 2.54, P < 0.05): 12.78%
inhibition at 50 µM (albumin of beef serum; [4]): 10%
inhibition at 50 µM (albumin of beef serum; [5]): 8 to 13%
inhibition at 100 µM (albumin of beef serum; molar conc. .0001, UV rays for 30 minutes): 77%
inhibition at 200 µM (albumin of beef serum; [4]): 92%
inhibition at 200 µM (albumin of beef serum; [5]): 85 to 100%
times as active as Compound I (albumin of beef serum; relative activity versus Compound I in this test): at least 10 times
